What was measured:
Test in all cases: cells
Parameters in all cases: Cell growth inhibition, sulforhodamine B total protein staining
A2780 = details: Homo sapiens, A2780; 72 h growth; read-out: Cell growth inhibition IC50/µM
Method: (§1) Cell panel profiling A panel of 94 cell lines was exposed to Glupin for 72 h to assess the influence on cell growth (Oncolead, Germany). Cell growth was determined using sulforhodamine B assay. Measurements were performed using a total protein staining protocol. Briefly, after treatement cells were fixed addition of 10% TCA (for adherent growing cells) or 50% TCA (for semi-adherent growing cells or cells growing in suspension). After an incubation at 4°C for 1 h, plates were washed twice with 400 μl of deionized water and dried. Cells were then stained with 100 μl of 0.04% wt/v sulforhodamine B. Plates were incubated at room temperature for at least 30 min and washed six times with 1% acetic acid to remove unbound stain. […] This effect was much stronger at a physiological glucose concentration (5 mM; Figure 5 b,c). […] IC50 values lower than 300 nM were obtained for more than 20 cell lines, whereas 24 cell lines were not affected by the compound, among them the peripheral blood mononuclear control cells (PBMCs). Sensitivity to Glupin was detected across various tissue types (Table S6).

A549 = details: Homo sapiens, A549; 72 h growth; read-out: Cell growth inhibition IC50/µM
Method: as §1

ACHN = details: Homo sapiens, ACHN; 72 h growth; read-out: Cell growth inhibition IC50/µM
Method: as §1

ASPC1 = details: Homo sapiens, ASPC1; 72 h growth; read-out: Cell growth inhibition IC50/µM
Method: as §1

BT20 = details: Homo sapiens, BT-20; 72 h growth; read-out: Cell growth inhibition IC50/µM
Method: as §1

COLO205 = details: Homo sapiens, COLO 205; 72 h growth; read-out: Cell growth inhibition IC50/µM
Method: as §1

COLO678 = details: Homo sapiens, COLO-678; 72 h growth; read-out: Cell growth inhibition IC50/µM
Method: as §1

EFO21 = details: Homo sapiens, EFO-21; 72 h growth; read-out: Cell growth inhibition IC50/µM
Method: as §1

HCT116 = details: Homo sapiens, HCT-116; 72 h growth; read-out: Cell growth inhibition IC50/µM
Method: as §1

HEK293 = details: Homo sapiens, HEK293; 72 h growth; read-out: Cell growth inhibition IC50/µM
Method: as §1

HL60 = details: Homo sapiens, HL-60; 72 h growth; read-out: Cell growth inhibition IC50/µM
Method: as §1

HT29 = details: Homo sapiens, HT-29; 72 h growth; read-out: Cell growth inhibition IC50/µM
Method: as §1

J82 = details: Homo sapiens, J82; 72 h growth; read-out: Cell growth inhibition IC50/µM
Method: as §1

JIMT1 = details: Homo sapiens, JIMT-1; 72 h growth; read-out: Cell growth inhibition IC50/µM
Method: as §1

KASUMI1 = details: Homo sapiens, Kasumi 1; 72 h growth; read-out: Cell growth inhibition IC50/µM
Method: as §1

L363 = details: Homo sapiens, L-363; 72 h growth; read-out: Cell growth inhibition IC50/µM
Method: as §1

MDAMB468 = details: Homo sapiens, MDA-MB-468; 72 h growth; read-out: Cell growth inhibition IC50/µM
Method: as §1

MG63 = details: Homo sapiens, MG-63; 72 h growth; read-out: Cell growth inhibition IC50/µM
Method: as §1

OVCAR3 = details: Homo sapiens, OVCAR-3; 72 h growth; read-out: Cell growth inhibition IC50/µM
Method: as §1

OVCAR4 = details: Homo sapiens, OVCAR-4; 72 h growth; read-out: Cell growth inhibition IC50/µM
Method: as §1

PC3 = details: Homo sapiens, PC-3; 72 h growth; read-out: Cell growth inhibition IC50/µM
Method: as §1

SKNSH = details: Homo sapiens, SK-N-SH; 72 h growth; read-out: Cell growth inhibition IC50/µM
Method: as §1

SNB75 = details: Homo sapiens, SNB-75; 72 h growth; read-out: Cell growth inhibition IC50/µM
Method: as §1

- IC50 (A2780): 0.248 µM
- IC50 (A549): 0.32 µM
- IC50 (ACHN): > 30 µM
- IC50 (ASPC1): 0.695 µM
- IC50 (BT20): > 30 µM
- IC50 (COLO205): 3.73 µM
- IC50 (COLO678): > 30 µM
- IC50 (HCT116): 1.47 µM
- IC50 (HL60): 0.112 µM
- IC50 (HT29): 3.35 µM
- IC50 (MDAMB468): 4.32 µM
- IC50 (OVCAR3): > 30 µM
- IC50 (OVCAR4): 1.41 µM
- IC50 (PC3): 0.827 µM
- IC50 (SKNSH): 0.084 µM
SMILES: CCOC(=O)Cn1c2c(c3ccccc31)C[C@@H]1C[C@H]2C(OC)CN1C(=O)c1cccnc1SC (single isomer, unassigned; (+)) [(+)-5a, Glupin]
- IC50 (EFO21): > 30 µM
- IC50 (HEK293): 0.463 µM
- IC50 (J82): 7.25 µM
- IC50 (JIMT1): 0.113 µM
- IC50 (KASUMI1): > 30 µM
- IC50 (L363): 2.87 µM
- IC50 (MG63): > 30 µM
- IC50 (SNB75): 9.13 µM

— article PMC6900016, “Synthesis of Indomorphan Pseudo‐Natural Product Inhibitors of Glucose Transporters GLUT‐1 and ‐3” (Angewandte Chemie (International Ed. in English), 2019)
